Assay [1] relates to Plasmodium falciparum (strain NF54). Put plainly: Antimalarial activity test: growth of Plasmodium falciparum in infected human erythrocytes, 3H-hypoxanthine incorporation. As to conditions: strain NF54 sensitive to chloroquine, 72 h total incubation. Format: cell-based. The method in brief: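 Chloroquine-sensitive NF54 parasites in human erythrocytes (1.25% hematocrit, 0.15% parasitemia) were grown in hypoxanthine-free RPMI 1640 with HEPES and Albumax II, with compound in twofold serial dilution, at 37 °C under 93% N2/4% CO2/3% O2. After 48 h, 3H-hypoxanthine (0.5 μCi) was added for 24 h. Scintillation counts versus drug-free control gave IC50.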

A further assay deals with human PI3Kα (Homo sapiens (Human), UniProt P42336). Put plainly: Human PI3Kα activity test (luciferin/luciferase ATP consumption, KinaseGlo). In kind it is biochemical.
Chain of human PI3Kα (P42336 whole entry): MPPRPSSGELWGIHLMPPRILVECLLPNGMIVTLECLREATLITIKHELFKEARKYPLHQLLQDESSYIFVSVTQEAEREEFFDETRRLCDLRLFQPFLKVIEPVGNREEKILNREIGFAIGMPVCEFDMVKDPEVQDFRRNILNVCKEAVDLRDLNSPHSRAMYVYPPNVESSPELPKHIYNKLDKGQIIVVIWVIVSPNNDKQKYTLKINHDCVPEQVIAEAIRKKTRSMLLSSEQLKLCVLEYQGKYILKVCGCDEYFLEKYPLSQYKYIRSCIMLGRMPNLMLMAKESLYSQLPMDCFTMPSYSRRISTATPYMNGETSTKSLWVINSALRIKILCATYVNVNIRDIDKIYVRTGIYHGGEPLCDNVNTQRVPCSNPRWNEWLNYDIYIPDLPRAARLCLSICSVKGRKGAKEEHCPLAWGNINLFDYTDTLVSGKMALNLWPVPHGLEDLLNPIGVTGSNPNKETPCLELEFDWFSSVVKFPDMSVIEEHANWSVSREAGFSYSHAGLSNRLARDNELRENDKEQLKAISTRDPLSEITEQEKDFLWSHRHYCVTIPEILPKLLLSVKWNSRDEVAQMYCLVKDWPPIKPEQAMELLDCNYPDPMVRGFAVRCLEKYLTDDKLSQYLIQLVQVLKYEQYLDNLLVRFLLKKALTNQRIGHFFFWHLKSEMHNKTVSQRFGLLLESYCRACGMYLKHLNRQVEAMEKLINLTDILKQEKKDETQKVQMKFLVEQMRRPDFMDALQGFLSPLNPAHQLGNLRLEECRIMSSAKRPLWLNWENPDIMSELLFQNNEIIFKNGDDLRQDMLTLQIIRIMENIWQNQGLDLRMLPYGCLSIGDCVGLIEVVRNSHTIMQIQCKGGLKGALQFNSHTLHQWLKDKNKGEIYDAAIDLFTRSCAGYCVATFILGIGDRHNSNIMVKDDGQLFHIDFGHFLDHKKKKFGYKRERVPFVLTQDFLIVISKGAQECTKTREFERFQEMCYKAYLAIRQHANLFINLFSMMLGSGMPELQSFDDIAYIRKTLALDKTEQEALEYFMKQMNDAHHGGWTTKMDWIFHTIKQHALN
Chain of human PI3Kα (P27986 whole entry partner): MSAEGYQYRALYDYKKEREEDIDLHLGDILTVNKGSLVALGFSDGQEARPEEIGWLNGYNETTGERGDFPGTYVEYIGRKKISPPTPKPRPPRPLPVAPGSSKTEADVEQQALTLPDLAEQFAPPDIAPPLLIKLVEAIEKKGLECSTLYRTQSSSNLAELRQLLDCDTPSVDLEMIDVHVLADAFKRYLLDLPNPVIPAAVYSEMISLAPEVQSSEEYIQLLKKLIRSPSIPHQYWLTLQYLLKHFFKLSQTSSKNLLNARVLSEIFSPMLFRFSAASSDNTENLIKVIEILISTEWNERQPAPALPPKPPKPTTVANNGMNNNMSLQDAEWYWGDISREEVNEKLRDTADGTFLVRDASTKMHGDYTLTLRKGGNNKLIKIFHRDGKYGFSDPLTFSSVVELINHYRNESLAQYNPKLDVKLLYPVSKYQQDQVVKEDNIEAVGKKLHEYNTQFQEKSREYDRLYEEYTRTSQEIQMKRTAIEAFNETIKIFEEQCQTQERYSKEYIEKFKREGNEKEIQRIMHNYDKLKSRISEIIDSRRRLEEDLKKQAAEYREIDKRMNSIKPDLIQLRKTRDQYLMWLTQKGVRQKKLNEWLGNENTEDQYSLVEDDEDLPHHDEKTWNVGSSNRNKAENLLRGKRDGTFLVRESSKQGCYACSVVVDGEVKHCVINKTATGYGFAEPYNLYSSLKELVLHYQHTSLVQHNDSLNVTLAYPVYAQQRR
[2] abbreviates: Plasmodium falciparum, Erythrocyte.
Where [3] appears, read: PI3Kα (p110α/p85α), 50 μM PIP2, 2 μM ATP, 90 minutes, read-out: IC50 Human PI3Kα.

Read-outs that look alike come from different tables or passages of the source.

Procedure for human PI3Kα: The test uses a luciferin/luciferase system to measure the concentration of ATP and its consumption during the enzymatic reaction.
After 90 minutes, the reaction is quenched by adding 20 μl/well of KinaseGlo reagent (Promega V6713). After 10 minutes in the dark, the luminescence is read using a PHERAStar microplate reader (reading at 0.8 sec/well).

As to `C[C@@]1(C(F)(F)F)Cn2c(nc(N3CC4CCC(C3)O4)cc2=O)N1CCc1ccc(O)cc1` [Compound 72, (S)-1-[2-(4-hydroxyphenyl)ethyl]-2-methyl-7-(8-oxa-3-azabicyclo[3.2.1]oct-3-yl)-2-trifluoromethyl-2,3-dihydro-1H-imidazo[1,2-a]pyrimidin-5-one], the IC50 came to 37 nM in assay [1] (setting [2]) and 730 nM on human PI3Kα (setting [3]).

For `O=C(CN1c2nc(N3CC4CCC(C3)O4)cc(=O)n2CC[C@H]1C(F)(F)F)c1ccccc1` [Compound 73, (8S)-2-(8-Oxa-3-azabicyclo[3.2.1]oct-3-yl)-9-(2-oxo-2-phenylethyl)-8-trifluoromethyl-6,7,8,9-tetrahydropyrimido[1,2-a]pyrimidin-4-one], the IC50 in assay [1] (setting [2]) was found to be 44 nM; at human PI3Kα (setting [3]), 2500 nM.

As for `CN(C)CCOc1ccc(CCN2c3nc(N4CC5CCC(C4)O5)cc(=O)n3C[C@@]2(C)C(F)(F)F)cc1` [Compound 74, (S)-1-{2-[4-(2-dimethylaminoethoxy)phenyl]ethyl}-2-methyl-7-(8-oxa-3-azabicyclo[3.2.1]oct-3-yl)-2-trifluoromethyl-2,3-dihydro-1H-imidazo[1,2-a]pyrimidin-5-one], the half-maximal inhibitory concentration (IC50) in assay [1] (setting [2]) was 68 nM; on human PI3Kα (setting [3]), 820 nM.

Turning to `O=C(CN1c2nc(N3CC4CCC(C3)O4)cc(=O)n2CC[C@H]1C(F)(F)F)c1ccncc1` [Compound 75, (8S)-2-(8-oxa-3-azabicyclo[3.2.1]oct-3-yl)-9-(2-oxo-2-pyrid-4-ylethyl)-8-trifluoromethyl-6,7,8,9-tetrahydropyrimido[1,2-a]pyrimidin-4-one], the IC50 is 80 nM in assay [1] (setting [2]) and at least 10000 nM at human PI3Kα (setting [3]).

Consider `COc1ccc(CCN2c3nc(N4CC5CCC(C4)O5)cc(=O)n3C[C@@]2(C)C(F)(F)F)cc1` [Compound 76, (S)-1-[2-(4-Methoxyphenyl)ethyl]-2-methyl-7-(8-oxa-3-azabicyclo[3.2.1]oct-3-yl)-2-trifluoromethyl-2,3-dihydro-1H-imidazo[1,2-a]pyrimidin-5-one], for which the half-inhibitory concentration (IC50) in assay [1] (setting [2]) turned out to be 93 nM; on human PI3Kα (setting [3]) it was 950 nM.

In the case of `C[C@@]1(C(F)(F)F)Cn2c(nc(N3CC4CCC(C3)O4)cc2=O)N1CCCc1ccccc1` [Compound 77, (S)-2-Methyl-7-(8-oxa-3-azabicyclo[3.2.1]oct-3-yl)-1-(3-phenylpropyl)-2-trifluoromethyl-2,3-dihydro-1H-imidazo[1,2-a]pyrimidin-5-one], the IC50 in assay [1] (setting [2]) was found to be 160 nM; on human PI3Kα (setting [3]) it was 820 nM.

Take `CN(C)CCCOc1ccc(CCN2c3nc(N4CC5CCC(C4)O5)cc(=O)n3C[C@@]2(C)C(F)(F)F)cc1` [Compound 78, (S)-1-{2-[4-(3-Dimethylaminopropoxyl)phenyl]ethyl}-2-methyl-7-(8-oxa-3-azabicyclo[3.2.1]oct-3-yl)-2-trifluoromethyl-2,3-dihydro-1H-imidazo[1,2-a]pyrimidin-5-one]: the IC50 in assay [1] (setting [2]) was determined as 360 nM; at human PI3Kα (setting [3]) it was 250 nM.

For the molecule `C[C@@]1(C(F)(F)F)Cn2c(nc(N3CC4CCC(C3)O4)cc2=O)N1C[C@@H](O)c1ccccc1` [Compound 79, (2S)-1-((S)-2-Hydroxy-2-phenylethyl)-2-methyl-7-(8-oxa-3-azabicyclo[3.2.1]oct-3-yl)-2-trifluoromethyl-2,3-dihydro-1H-imidazo[1,2-a]pyrimidin-5-one], the IC50 in assay [1] (setting [2]) was 640 nM; on human PI3Kα (setting [3]), 1600 nM.

Take `O=c1cc(N2CC3CCC(C2)O3)nc2n1CC[C@@H](C(F)(F)F)N2C[C@@H](O)c1cc2ccccc2s1` [Compound 82, (8S)-9-((R)-2-Benzo[b]thiophen-2-yl-2-hydroxyethyl)-2-(8-oxa-3-azabicyclo[3.2.1]oct-3-yl)-8-trifluoromethyl-6,7,8,9-tetrahydropyrimido[1,2-a]pyrimidin-4-one]: the IC50 in assay [1] (setting [2]) came out at 9 nM; at human PI3Kα (setting [3]) it was 340 nM.

Regarding `O=c1cc(N2CC3CCC(C2)O3)nc2n1CC[C@@H](C(F)(F)F)N2CCc1ccc(O)cc1` [Compound 83, (8S)-9-[2-(4-Hydroxyphenyl)ethyl]-2-(8-oxa-3-azabicyclo[3.2.1]oct-3-yl)-8-trifluoromethyl-6,7,8,9-tetrahydropyrimido[1,2-a]pyrimidin-4-one], the IC50 in assay [1] (setting [2]) is 10 nM; on human PI3Kα (setting [3]), 190 nM.

Turning to `O=c1cc(N2CC3CCC(C2)O3)nc2n1CC[C@@H](C(F)(F)F)N2CCCc1ccccc1` [Compound 84, (8S)-2-(8-oxa-3-azabicyclo[3.2.1]oct-3-yl)-9-(3-phenylpropyl)-8-trifluoromethyl-6,7,8,9-tetrahydropyrimido[1,2-a]pyrimidin-4-one], the IC50 is 110 nM in assay [1] (setting [2]) and 200 nM on human PI3Kα (setting [3]).

As to `O=C(CN1c2nc(N3C4CCC3COC4)cc(=O)n2CC[C@H]1C(F)(F)F)c1cccnc1` [Compound 85, (8S)-2-(3-Oxa-8-azabicyclo[3.2.1]oct-8-yl)-9-(2-oxo-2-pyrid-3-ylethyl)-8-trifluoromethyl-6,7,8,9-tetrahydropyrimido[1,2-a]pyrimidin-4-one], the IC50 in assay [1] (setting [2]) is 150 nM; against human PI3Kα, over 10000 nM.

As to `O=c1cc(N2CC3CCC(C2)O3)nc2n1CC[C@@H](C(F)(F)F)N2Cc1ccn(C(F)F)n1` [Compound 86, (8S)-9-(1-Difluoromethyl-1H-pyrazol-3-ylmethyl)-2-(8-oxa-3-azabicyclo[3.2.1]oct-3-yl)-8-trifluoromethyl-6,7,8,9-tetrahydropyrimido[1,2-a]pyrimidin-4-one], the IC50 in assay [1] (setting [2]) came out at 170 nM; at human PI3Kα (setting [3]), 7300 nM.

Take `O=C(CN1c2nc(N3CC4CCC(C3)O4)cc(=O)n2CC[C@H]1C(F)(F)F)c1ccccn1` [Compound 88, (8S)-2-(8-Oxa-3-azabicyclo[3.2.1]oct-3-yl)-9-(2-oxo-2-pyrid-2-ylethyl)-8-trifluoromethyl-6,7,8,9-tetrahydropyrimido[1,2-a]pyrimidin-4-one]: the IC50 in assay [1] (setting [2]) is 140 nM; at human PI3Kα (setting [3]), 1300 nM.

Take `CC(=O)N1CCC(CCN2c3nc(N4C[C@@H]5C[C@H]4CO5)cc(=O)n3CC[C@H]2C(F)(F)F)CC1` [Compound 89, (S)-9-[2-(1-Acetylpiperid-4-yl)ethyl]-2-(1S,4S)-2-oxa-5-azabicyclo[2.2.1]hept-5-yl-8-trifluoromethyl-6,7,8,9-tetrahydropyrimido[1,2-a]pyrimidin-4-one]: the values for the IC50 (in assay [1] (setting [2]); on human PI3Kα (setting [3])) were 3.4 nM and 2800 nM, respectively.

Turning to `O=CN1CCC(CCN2c3nc(N4C[C@@H]5C[C@H]4CO5)cc(=O)n3CC[C@H]2C(F)(F)F)CC1` [Compound 90, 4-[2-((2S)-8-(1S,4S)-2-oxa-5-azabicyclo[2.2.1]hept-5-yl-6-oxo-2-trifluoromethyl-3,4-dihydro-2H,6H-pyrimido[1,2-a]pyrimidin-1-yl)ethyl]piperidine-1-carbaldehyde], the IC50 in assay [1] (setting [2]) was 2 nM; at human PI3Kα (setting [3]), 2400 nM.

Turning to `CCOC(=O)N1CCC(C(=O)CN2c3nc(N4C[C@@H]5C[C@H]4CO5)cc(=O)n3CC[C@H]2C(F)(F)F)CC1` [Compound 91, 4-[2-((S)-8-(1S,4S)-2-Oxa-5-azabicyclo[2.2.1]hept-5-yl-6-oxo-2-trifluoromethyl-3,4-dihydro-2H,6H-pyrimido[1,2-a]pyrimidin-1-yl)acetyl]piperidine-1-carboxylic acid ethyl ester], the IC50 is 25 nM in assay [1] and over 10000 nM at human PI3Kα (setting [3]).

`O=c1cc(N2C[C@@H]3C[C@H]2CO3)nc2n1CC[C@@H](C(F)(F)F)N2CCC1CCOCC1` [Compound 92, (8S)-2-(1S,4S)-2-oxa-5-azabicyclo[2.2.1]hept-5-yl-9-[2-(tetrahydropyran-4-yl)ethyl]-8-trifluoromethyl-6,7,8,9-tetrahydropyrimido[1,2-a]pyrimidin-4-one]: the IC50 in assay [1] (setting [2]) worked out at 4 nM; at human PI3Kα (setting [3]), 450 nM.

As to `O=c1cc(N2C[C@@H]3C[C@H]2CO3)nc2n1CC[C@@H](C(F)(F)F)N2CC1CCOCC1` [Compound 93, (8S)-2-(1S,4S)-2-oxa-5-azabicyclo[2.2.1]hept-5-yl-9-(tetrahydropyran-4-ylmethyl)-8-trifluoromethyl-6,7,8,9-tetrahydropyrimido[1,2-a]pyrimidin-4-one], the 50% inhibitory concentration (IC50) in assay [1] (setting [2]) is 4 nM; at human PI3Kα (setting [3]), 780 nM.

With `CC(=O)N1CCC(CN2c3nc(N4C[C@@H]5C[C@H]4CO5)cc(=O)n3CC[C@H]2C(F)(F)F)CC1` [Compound 94, (8S)-9-(1-Acetylpiperid-4-ylmethyl)-2-(1S,4S)-2-oxa-5-azabicyclo[2.2.1]hept-5-yl-8-trifluoromethyl-6,7,8,9-tetrahydropyrimido[1,2-a]pyrimidin-4-one], the IC50 in assay [1] (setting [2]) came out at 9 nM; at human PI3Kα (setting [3]), 130 nM.

Consider `O=CN1CCC(CN2c3nc(N4C[C@@H]5C[C@H]4CO5)cc(=O)n3CC[C@H]2C(F)(F)F)CC1` [Compound 95, 4-((2S)-8-(1S,4S)-2-oxa-5-azabicyclo[2.2.1]hept-5-yl-6-oxo-2-trifluoromethyl-3,4-dihydro-2H,6H-pyrimido[1,2-a]pyrimidin-1-ylmethyl)piperidine-1-carbaldehyde], for which the IC50 was found to be 7 nM in assay [1] (setting [2]) and 180 nM on human PI3Kα (setting [3]).

Take `O=c1cc(N2C[C@@H]3C[C@H]2CO3)nc2n1CC[C@@H](C(F)(F)F)N2CC(O)(C(F)(F)F)C(F)(F)F` [Compound 96, (8S)-2-(1S,4S)-2-oxa-5-azabicyclo[2.2.1]hept-5-yl-9-(3,3,3-trifluoro-2-hydroxy-2-trifluoromethylpropyl)-8-trifluoromethyl-6,7,8,9-tetrahydropyrimido[1,2-a]pyrimidin-4-one]: the figures for the IC50 (in assay [1] (setting [2]); on human PI3Kα (setting [3])) were 170 nM and 8500 nM, respectively.

With `O=c1cc(N2C[C@@H]3C[C@H]2CO3)nc2n1CC[C@@H](C(F)(F)F)N2CCC(O)(C(F)(F)F)C(F)(F)F` [Compound 97, (8S)-2-(1S,4S)-2-Oxa-5-azabicyclo[2.2.1]hept-5-yl-9-(4,4,4-trifluoro-3-hydroxy-3-trifluoromethylbutyl)-8-trifluoromethyl-6,7,8,9-tetrahydropyrimido[1,2-a]pyrimidin-4-one], the values for the IC50 (in assay [1]; on human PI3Kα (setting [3])) were 30 nM and 440 nM, respectively.

These data come from patent US9321790B2, “Pyrimidinone derivatives as antimalarial agents” (SANOFI, priority 2012, dated 2016).
